Data from patent US10799598B2, “Disulfide bridging conjugates” (Sorrento Therapeutics, Inc., priority 2017, dated 2020).

Columns and labels:
[1] = system: PC-3 (PSMA-) prostate cancer cells; test: Luminescence cytotoxicity assay, absence of effector cells, PC-3; assay type: cell-based; settings: PC-3 (PSMA absent), up to 20 nM, 4 days incubation
Procedure: (§1) Firefly luciferase transduced prostate cancer target cell lines were used for cytotoxicity assays, LNCaP (ATCC® CRL-1740™), PSMA+(cultured in RPMI-1640+10% non-heat-inactivated FBS+0.5 μg/mL Puromycin) and PC-3 (ATCC® CRL-1435™), PSMA-(cultured in RPMI-1640+10% heat-inactivated FBS+1.0 μg/mL Puromycin). Cells were harvested with TrypLE (ThermoFisher Scientific) then resuspended in fresh RPMI-1640+10% heat-inactivated FBS and plated at 4,000 cells/well in 100 μL. After overnight incubation at 37° C. in a humidified 5% CO2 incubator, serial dilutions of proteins in RPMI-1640+10% heat-inactivated medium (50 μL) were added to the assay plates at the indicated concentrations. In experiments utilizing effector cells, freshly thawed peripheral blood mononuclear cells (PBMCs) were washed with media and added to the assay plates at 40,000 cells in 50 μL to obtain an effector:target ratio of 10:1. After 4 days incubation, 90 μL was removed from assay plates and 90 μL ONE Glo Luciferase Assay Reagent (Promega # E6120) was mixed with the samples and incubated at room temperature for 10 min. Samples were transferred to white 96-well flat bottom plates for luminescence measurements using a PerkinElmer EnSpire multimode plate reader. Data was analyzed using GraphPad Prism software.

[2] = system: LNCaP (PSMA+) prostate cancer cells; test: Luminescence cytotoxicity assay, absence of effector cells, LNCaP; assay type: cell-based; settings: LNCaP (PSMA present), up to 20 nM, 4 days incubation
Procedure: as §1

## O=C(O)CCC(NC(=O)NC(CCC(=O)O)C(=O)O)C(=O)O (centres unmarked) [DUPA small molecule, 2-[3-(1,3-dicarboxypropyl)ureido]pentanedioic acid]
[1]
  dose-dependent cell killing activity: No dose-dependent cell killing activity was observed
[2]
  dose-dependent cell killing activity: No dose-dependent cell killing activity was observed
